Like-named read-outs stand apart in the source and are kept apart here. Peptide text beside a SMILES is read from it.
What was measured:
HEK293T cells = system: HEK293T cells
Procedure: HEK293T cells were obtained from the American Type Culture Collection (CRL-3216). The cells were cultured in high-glucose Dulbecco’s modified Eagle’s medium supplemented with 1% penicillin and streptomycin (antibiotics) and 10% fetal bovine serum and grown at 37 °C in a humidified atmosphere containing 5% CO2.
One day before the experiment, an aliquot of 100 μl of the cells at 50,000 cells per ml was seeded into each well of the cell-treated 96-well plates used in the experiment (that is, 5,000 cells per well). […] After the incubation period, we performed the 3-(4,5-dimethylthiazol-2-yl)-2,5-diphenyltetrazolium bromide tetrazolium reduction assay (MTT assay)[53]. The MTT reagent was dissolved at 0.5 mg ml^−1 in medium without phenol red and was used to replace cell culture supernatants containing the peptides (100 μl per well), and the samples were incubated for 4 h at 37 °C in a humidified atmosphere containing 5% CO2 yielding the insoluble formazan salt. The resulting salts were then resuspended in hydrochloric acid (0.04 mol l^−1) in anhydrous isopropanol and quantified by spectrophotometric measurements of absorbance at 570 nm. All assays were done as three biological replicates.
Unless otherwise stated, all assays were performed in three independent biological replicates as indicated in each figure legend and Methods sections. The cytotoxic activities values were estimated using non-linear regression based on the range of concentrations screened and were shown as the values that cause lysis of 50% of the cells in the experiment. Two technical replicates were performed in the cytotoxicity assays within each of the three biological replicates.

[1] = system: 11 clinically relevant bacterial pathogens; format: cell-based; conditions: Supplementary Dataset 2; against the 11 pathogens tested
Text: The following Gram-negative bacteria were used in our study: A. baumannii ATCC 19606, E. coli ATCC 11775, E. coli AIC221 (E. coli MG1655 phnE_2::FRT), E. coli AIC222 (E. coli MG1655 pmrA53 phnE_2::FRT (colistin resistant)), K. pneumoniae ATCC 13883, P. aeruginosa PAO1 and P. aeruginosa PA14. The following Gram-positive bacteria were also used in our study: S. aureus ATCC 12600, S. aureus ATCC BAA-1556 (methicillin-resistant strain), E. faecalis ATCC 700802 (vancomycin-resistant strain) and E. faecium ATCC 700221 (vancomycin-resistant strain). Bacteria were grown from frozen stocks and plated on Luria–Bertani (LB) or Pseudomonas isolation agar plates (P. aeruginosa strains) and incubated overnight at 37 °C. After the incubation period, a single colony was transferred to 5 ml of LB medium, and cultures were incubated overnight (16 h) at 37 °C. The following day, an inoculum was prepared by diluting the overnight cultures 1:100 in 5 ml of the respective media and incubating them at 37 °C until bacteria reached logarithmic phase (OD600 = 0.3–0.5).
The in vitro antimicrobial activity of the peptides was assessed by using the broth microdilution assay. […] Aqueous solutions of the peptides were added to the plate at concentrations ranging from 1 to 64 μmol l^−1. […] The optical density of the plates was measured at 600 nm using a spectrophotometer. All assays were done as three biological replicates.

A. baumannii ATCC 19606 [2] = assay: Skin abscess infection mouse model; format: in vivo, CD-1 mice; conditions: CD-1 mice
Procedure: A. baumannii ATCC 19606 cells were grown in LB medium to an OD600 = 0.5. Cells were washed twice with sterile phosphate-buffered saline (PBS) (pH 7.4, 13,000 r.p.m. for 2 min) and resuspended to a final concentration of 10^6 (A. baumannii cells) colony-forming units per millilitre (c.f.u. ml^−1). Six-week-old female CD-1 mice from Charles River (stock number 18679700-022) were anaesthetized with isoflurane, and their backs were sterilized and shaved. A superficial linear skin abrasion was made with a needle to damage the stratum corneum and upper layer of the epidermis. An aliquot of 20 μl containing the bacterial load resuspended in PBS was inoculated over the scratched area. Two hours after the infection, peptides diluted in water at their MIC value were administered to the infected area, and the untreated mice were inoculated with the same volume of deionized water. Mice were euthanized, and the area of scarified skin was excised 2 days and 4 days post infection, homogenized using a bead beater for 20 min (25 Hz) and then serially diluted tenfold for quantification of colony-forming units. This quantitative method was used as it has been established to accurately reflect the number of bacteria present in a given infected area. MacConkey agar plates were used as A. baumannii colonies appear purple in this medium and can easily be distinguished from other strains. The experiments were performed with six mice per group. All experiments were performed blindly, and no animal subjects were excluded from the analysis. The skin abscess infection mouse model was approved by the University Laboratory Animal Resources from the University of Pennsylvania (protocol 806763). Statistical significance was determined using one-way analysis of variance (ANOVA) followed by Dunnett’s test in log10-transformed data to mitigate the effect of outliers; P values are presented for each group, with all groups being compared to the untreated control group.

A. baumannii ATCC 19606 [3] = assay: Neutropenic thigh infection mouse model; format: in vivo, CD-1 mice; conditions: neutropenic CD-1 mice
Procedure: Six-week-old female CD-1 mice from Charles River (stock number 18679700-022) were rendered neutropenic by two doses of cyclophosphamide (150 mg kg^−1) applied intraperitoneally with an interval of 72 h. One day after the last dose of cyclophosphamide, the mice were injected intramuscularly in their right thigh with a bacterial load of 10^6 c.f.u. ml^−1 of A. baumannii ATCC 19606 cells. The bacteria had been grown in LB broth, washed twice with PBS (pH 7.4), and resuspended to the desired concentration. Two hours after bacterial injection, peptides resuspended in water were administered intraperitoneally, and the untreated mice were inoculated with the same volume of deionized water. Before each injection, mice were anaesthetized with isoflurane and monitored for respiratory rate and pedal reflexes. Next, we monitored the establishment of the infection and euthanized the mice. The infected area was excised 2 days and 4 days post infection, homogenized using a bead beater for 20 min (25 Hz), and then serially diluted tenfold for quantification of colony-forming units in MacConkey agar plates. The experiments were performed with six mice per group. All experiments were performed blindly, and no animal subjects were excluded from the analysis. The thigh infection mouse model was approved by the University Laboratory Animal Resources from the University of Pennsylvania (protocol 807055). Statistical significance was determined using one-way ANOVA followed by Dunnett’s test in log10-transformed data to mitigate the effect of outliers; P values are presented for each group, with all groups being compared to the untreated control group.

[4] = A. baumannii ATCC 19606, day 2, replicate 1
[5] = A. baumannii ATCC 19606, day 2, replicate 2
[6] = A. baumannii ATCC 19606, day 2, replicate 3
[7] = A. baumannii ATCC 19606, day 2, replicate 4
[8] = A. baumannii ATCC 19606, day 2, replicate 5
[9] = A. baumannii ATCC 19606, day 2, replicate 6
[10] = A. baumannii ATCC 19606, day 4, replicate 1
[11] = A. baumannii ATCC 19606, day 4, replicate 2
[12] = A. baumannii ATCC 19606, day 4, replicate 3
[13] = A. baumannii ATCC 19606, day 4, replicate 4
[14] = A. baumannii ATCC 19606, day 4, replicate 5
[15] = A. baumannii ATCC 19606, day 4, replicate 6

Molecule: CC[C@H](C)[C@H](NC(=O)[C@H](Cc1c[nH]cn1)NC(=O)[C@@H](N)CC(C)C)C(=O)NCC(=O)N[C@@H](CC(C)C)C(=O)N[C@H](C(=O)N[C@@H](CCCCN)C(=O)N[C@H](C(=O)N[C@@H](Cc1ccc(O)cc1)C(=O)N[C@@H](CC(C)C)C(=O)NCC(=O)N[C@@H](CO)C(=O)N[C@@H](Cc1ccccc1)C(=O)N[C@@H](C)C(=O)N[C@@H](CC(C)C)C(=O)O)[C@@H](C)O)[C@@H](C)CC [Eudyptin-1] (H-LHIGLIKTYLGSFAL-OH; N-terminus and C-terminus assumed)
- CC50 (HEK293T cells; 24 h): > 128 µM
- TI (therapeutic index) (HEK293T cells; 24 h): > 2
- Active or Inactive [1]: Active

Molecule: CC[C@H](C)[C@H](N)C(=O)N[C@@H](CC(C)C)C(=O)N[C@H](C(=O)N[C@@H](CC(C)C)C(=O)N[C@@H](Cc1ccccc1)C(=O)N[C@H](C(=O)N[C@H](C(=O)N[C@@H](Cc1ccccc1)C(=O)N[C@@H](CCC(N)=O)C(=O)N[C@@H](CC(C)C)C(=O)N[C@@H](CCCCN)C(=O)N[C@H](C(=O)N[C@@H](CO)C(=O)N[C@@H](CCCCN)C(=O)N[C@@H](CC(C)C)C(=O)O)[C@@H](C)CC)[C@@H](C)CC)[C@@H](C)CC)[C@@H](C)O [Paleopropin-2] (H-ILTLFIIFQLKISKL-OH; N-terminus and C-terminus assumed)
- CC50 (HEK293T cells; 24 h): > 128 µM
- TI (therapeutic index) (HEK293T cells; 24 h): > 8
- Active or Inactive [1]: Active

Molecule: CC[C@H](C)[C@H](NC(=O)[C@H](CCCCN)NC(=O)[C@H](CC(C)C)NC(=O)[C@H](Cc1c[nH]cn1)NC(=O)[C@@H](N)CC(C)C)C(=O)N[C@@H](CC(C)C)C(=O)N[C@@H](CCCCN)C(=O)N[C@H](C(=O)N[C@H](C(=O)N[C@@H](CCCNC(=N)N)C(=O)N[C@@H](CC(C)C)C(=O)N[C@@H](CC(C)C)C(=O)O)[C@@H](C)CC)[C@@H](C)CC [Elephasin-1] (H-LHLKILKIIRLL-OH; N-terminus and C-terminus assumed)
- Active or Inactive [1]: Active

Molecule: polymyxin B [reference compound]
- bacterial count, skin abscess (Panel 6b) (A. baumannii ATCC 19606 [2]; [4]): 4000
- bacterial count, skin abscess (Panel 6b) (A. baumannii ATCC 19606 [2]; [5]): 2000
- bacterial count, skin abscess (Panel 6b) (A. baumannii ATCC 19606 [2]; [6]): 8000
- bacterial count, skin abscess (Panel 6b) (A. baumannii ATCC 19606 [2]; [7]): 6000
- bacterial count, skin abscess (Panel 6b) (A. baumannii ATCC 19606 [2]; [8]): 1400
- bacterial count, skin abscess (Panel 6b) (A. baumannii ATCC 19606 [2]; [9]): 400
- bacterial count, skin abscess (Panel 6b) (A. baumannii ATCC 19606 [2]; [10]): 8000
- bacterial count, skin abscess (Panel 6b) (A. baumannii ATCC 19606 [2]; [11]): 10000
- bacterial count, skin abscess (Panel 6b) (A. baumannii ATCC 19606 [2]; [12]): 600
- bacterial count, skin abscess (Panel 6b) (A. baumannii ATCC 19606 [2]; [13]): 600
- bacterial count, skin abscess (Panel 6b) (A. baumannii ATCC 19606 [2]; [14]): 200
- bacterial count, skin abscess (Panel 6b) (A. baumannii ATCC 19606 [2]; [15]): 400
- bacterial count, thigh infection (Panel 6d) (A. baumannii ATCC 19606 [3]; [4]): 20000
- bacterial count, thigh infection (Panel 6d) (A. baumannii ATCC 19606 [3]; [5]): 80000
- bacterial count, thigh infection (Panel 6d) (A. baumannii ATCC 19606 [3]; [6]): 200000
- bacterial count, thigh infection (Panel 6d) (A. baumannii ATCC 19606 [3]; [7]): 40000
- bacterial count, thigh infection (Panel 6d) (A. baumannii ATCC 19606 [3]; [8]): 40000
- bacterial count, thigh infection (Panel 6d) (A. baumannii ATCC 19606 [3]; [9]): 200000
- bacterial count, thigh infection (Panel 6d) (A. baumannii ATCC 19606 [3]; [10]): 200000
- bacterial count, thigh infection (Panel 6d) (A. baumannii ATCC 19606 [3]; [11]): 400000
- bacterial count, thigh infection (Panel 6d) (A. baumannii ATCC 19606 [3]; [12]): 1200000
- bacterial count, thigh infection (Panel 6d) (A. baumannii ATCC 19606 [3]; [13]): 600000
- bacterial count, thigh infection (Panel 6d) (A. baumannii ATCC 19606 [3]; [14]): 600000
- bacterial count, thigh infection (Panel 6d) (A. baumannii ATCC 19606 [3]; [15]): 200000

Molecule: CC[C@H](C)[C@H](NC(=O)[C@H](Cc1ccccc1)NC(=O)[C@@H](N)CC(C)C)C(=O)NCC(=O)N[C@@H](CC(C)C)C(=O)N[C@H](C(=O)N[C@@H](CC(N)=O)C(=O)N[C@@H](CC(C)C)C(=O)N[C@@H](CC(C)C)C(=O)NCC(=O)N[C@@H](CC(C)C)C(=O)N[C@@H](CC(C)C)C(=O)O)[C@@H](C)O [Mammuthusin-4] (H-LFIGLTNLLGLL-OH; N-terminus and C-terminus assumed)
- CC50 (HEK293T cells; 24 h): > 128 µM
- Active or Inactive [1]: Active

Molecule: CC[C@H](C)[C@H](N)C(=O)N[C@H](C(=O)NCC(=O)N[C@@H](CC(N)=O)C(=O)N[C@H](C(=O)N[C@@H](Cc1ccccc1)C(=O)NCC(=O)N[C@@H](Cc1ccccc1)C(=O)N[C@@H](CCCCN)C(=O)N[C@@H](C)C(=O)N[C@@H](CC(C)C)C(=O)N[C@@H](CCCNC(=N)N)C(=O)N[C@@H](C)C(=O)N[C@@H](CC(C)C)C(=O)N[C@@H](CCCNC(=N)N)C(=O)N[C@@H](CC(C)C)C(=O)O)C(C)C)C(C)C [Hesperelin-4] (H-IVGNVFGFKALRALRL-OH; N-terminus and C-terminus assumed)
- Active or Inactive [1]: Active

Molecule: CC[C@H](C)[C@H](NC(=O)[C@H](CCCCN)NC(=O)[C@H](CC(C)C)NC(=O)[C@H](CO)NC(=O)[C@@H](NC(=O)[C@H](CO)NC(=O)[C@H](CC(C)C)NC(=O)[C@H](CCCCN)NC(=O)[C@@H](NC(=O)[C@@H](NC(=O)[C@H](CC(N)=O)NC(=O)[C@@H](NC(=O)[C@@H](NC(=O)[C@@H](NC(=O)[C@H](Cc1c[nH]c2ccccc12)NC(=O)[C@@H](N)Cc1c[nH]cn1)[C@@H](C)CC)[C@@H](C)O)[C@@H](C)CC)[C@@H](C)O)[C@@H](C)CC)[C@@H](C)CC)C(=O)O [Lophiosin-1] (H-HWITINTIKLSISLKI-OH; N-terminus and C-terminus assumed)
- CC50 (HEK293T cells): 68.02 µM
- Active or Inactive [1]: Active
